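Five concentrations, 48 hours, 96-well plates. GI50 marks 50% less growth.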 Calls of active or inactive are those of the source. Rule as the data show it: active = GI50 up to about 1.1 µM and inactive = higher.
What was measured:
Experiment in all cases: growth of human tumour cells (NCI), 48 h
SR = test system: SR
OVCAR-5 = test system: OVCAR-5
U-251 = test system: U-251
UACC-257 = test system: UACC-257
HOP-62 = test system: HOP-62
CCRF-CEM = test system: CCRF-CEM
HOP-92 = test system: HOP-92
SF-539 = test system: SF-539
LXFL 529 = test system: LXFL 529
XF498 = test system: XF498
SW-620 = test system: SW-620
COLO 205 = test system: COLO 205
MDA-MB-435 = test system: MDA-MB-435
LOX IMVI = test system: LOX IMVI
K562 = test system: K562
HT-29 = test system: HT-29
NCI-H23 = test system: NCI-H23
A549 = test system: A549
UO-31 = test system: UO-31
CAKI-1 = test system: CAKI-1
OVCAR-3 = test system: OVCAR-3
NCI-H460 = test system: NCI-H460
DU-145 = test system: DU-145
MCF7 = test system: MCF7
SNB-78 = test system: SNB-78
DLD-1 = test system: DLD-1
NCI-H522 = test system: NCI-H522
PC-3 = test system: PC-3
BT-549 = test system: BT-549
RXF 393 = test system: RXF 393
MDA-MB-231 = test system: MDA-MB-231
IGROV-1 = test system: IGROV-1
SN12C = test system: SN12C
786-0 = test system: 786-0
KM-20L2 = test system: KM-20L2
SF-268 = test system: SF-268
ACHN = test system: ACHN
HL-60 = test system: HL-60
EKVX = test system: EKVX
MDA-N = test system: MDA-N
SK-MEL-28 = test system: SK-MEL-28
HCC 2998 = test system: HCC 2998
HCT-15 = test system: HCT-15
Hs-578T = test system: Hs-578T
UACC-62 = test system: UACC-62
A498 = test system: A498
SF-295 = test system: SF-295
SNB-19 = test system: SNB-19
RPMI-8226 = test system: RPMI-8226
MOLT-4 = test system: MOLT-4
TK-10 = test system: TK-10
T47D = test system: T47D
KM12 = test system: KM12
NCI-H226 = test system: NCI-H226
HOP-18 = test system: HOP-18
DMS-273 = test system: DMS-273
HCT-116 = test system: HCT-116
M14 = test system: M14
OVCAR-8 = test system: OVCAR-8
OVCAR-4 = test system: OVCAR-4
SK-MEL-5 = test system: SK-MEL-5
SNB-75 = test system: SNB-75
SK-OV-3 = test system: SK-OV-3
SK-MEL-2 = test system: SK-MEL-2
M19-MEL = test system: M19-MEL
Malme-3M = test system: Malme-3M

With `CCC/C(=N\NC(=S)N1CC2CCC(CC2)C1)c1ccccn1` the GI50 (SR) was 0.0495 µM (active), the GI50 (OVCAR-5) was 0.649 µM (active) and the GI50 (U-251) was 0.181 µM (active). The GI50 (UACC-257) was 0.0252 µM (active), the GI50 (HOP-62) was 0.713 µM (active) and the GI50 (CCRF-CEM) was 0.0186 µM (active). For the same molecule, the GI50 (HOP-92) was 0.019 µM (active), the GI50 (SF-539) was 0.594 µM (active) and the GI50 (LXFL 529) was 0.0113 µM (active). For the same molecule, the GI50 (XF498) was 0.00543 µM (active), the GI50 (SW-620) was 0.0566 µM (active) and the GI50 (COLO 205) was 0.0205 µM (active). For the same molecule, the GI50 (MDA-MB-435) was 0.585 µM (active), the GI50 (LOX IMVI) was 0.542 µM (active) and the GI50 (K562) was 0.00581 µM (active). The GI50 (HT-29) was 0.0432 µM (active), the GI50 (NCI-H23) was 0.422 µM (active) and the GI50 (A549) was 0.414 µM (active). The GI50 (UO-31) was 1.1 µM (active), the GI50 (CAKI-1) was 1.21 µM (inactive) and the GI50 (OVCAR-3) was 0.254 µM (active). For the same molecule, the GI50 (NCI-H460) was 0.22 µM (active), the GI50 (DU-145) was 1.49 µM (inactive) and the GI50 (MCF7) was 0.042 µM (active). The GI50 (SNB-78) was 0.344 µM (active), the GI50 (DLD-1) was 0.0118 µM (active) and the GI50 (NCI-H522) was 0.282 µM (active). The GI50 (PC-3) was 0.0906 µM (active), the GI50 (BT-549) was 0.3 µM (active) and the GI50 (RXF 393) was 0.51 µM (active). For the same molecule, the GI50 (MDA-MB-231) was 1.01 µM (active), the GI50 (IGROV-1) was 0.167 µM (active) and the GI50 (SN12C) was 0.395 µM (active). For the same molecule, the GI50 (786-0) was 0.438 µM (active), the GI50 (KM-20L2) was 0.0145 µM (active) and the GI50 (SF-268) was 0.641 µM (active). The GI50 (ACHN) was 0.131 µM (active), the GI50 (HL-60) was 0.00957 µM (active) and the GI50 (EKVX) was 0.0434 µM (active). The GI50 (MDA-N) was 0.685 µM (active), the GI50 (SK-MEL-28) was 0.783 µM (active) and the GI50 (HCC 2998) was 0.344 µM (active). For the same molecule, the GI50 (HCT-15) was 0.0853 µM, the GI50 (Hs-578T) was 0.213 µM (active) and the GI50 (UACC-62) was 0.0479 µM (active). For the same molecule, the GI50 (A498) was 0.708 µM (active), the GI50 (SF-295) was 0.399 µM (active) and the GI50 (SNB-19) was 0.571 µM (active). For the same molecule, the GI50 (RPMI-8226) was 0.00822 µM (active), the GI50 (MOLT-4) was 0.0179 µM (active) and the GI50 (TK-10) was 0.977 µM (active). The GI50 (T47D) was 0.00425 µM (active), the GI50 (KM12) was 0.144 µM (active) and the GI50 (NCI-H226) was 1.82 µM (inactive). For the same molecule, the GI50 (HOP-18) was 0.149 µM (active), the GI50 (DMS-273) was 0.00839 µM (active) and the GI50 (HCT-116) was 0.0359 µM (active). For the same molecule, the GI50 (M14) was 0.0929 µM (active), the GI50 (OVCAR-8) was 0.0877 µM (active) and the GI50 (OVCAR-4) was 0.395 µM (active). The GI50 (SK-MEL-5) was 0.117 µM (active), the GI50 (SNB-75) was 0.185 µM (active) and the GI50 (SK-OV-3) was 0.927 µM (active). For the same molecule, the GI50 (SK-MEL-2) was 0.0813 µM (active).
In the case of `CCOC(=O)c1cnc2c(ccc3ncccc32)c1NCCCN(CC)CC`, the GI50 (M19-MEL) is reported as > 100 µM (inactive), the GI50 (OVCAR-5) is reported as > 100 µM (inactive) and the GI50 (U-251) is reported as 72.4 µM (inactive). For the same molecule, the GI50 (UACC-257) was > 100 µM (inactive), the GI50 (HOP-62) was > 100 µM (inactive) and the GI50 (CCRF-CEM) was 38.4 µM (inactive). The GI50 (HOP-92) was 65.8 µM (inactive), the GI50 (SF-539) was > 10 µM (inactive) and the GI50 (LXFL 529) was > 100 µM (inactive). For the same molecule, the GI50 (XF498) was > 100 µM (inactive), the GI50 (SW-620) was 41.9 µM (inactive) and the GI50 (COLO 205) was 70.3 µM (inactive). The GI50 (LOX IMVI) was 17.5 µM (inactive), the GI50 (K562) was 27.2 µM (inactive) and the GI50 (HT-29) was 39.1 µM (inactive). The GI50 (NCI-H23) was 87.9 µM (inactive), the GI50 (A549) was > 100 µM (inactive) and the GI50 (UO-31) was 76.4 µM (inactive). The GI50 (CAKI-1) was > 100 µM (inactive), the GI50 (OVCAR-3) was > 100 µM (inactive) and the GI50 (NCI-H460) was 35.2 µM (inactive). The GI50 (SNB-78) was > 100 µM (inactive), the GI50 (DLD-1) was > 100 µM (inactive) and the GI50 (NCI-H522) was > 100 µM (inactive). The GI50 (Malme-3M) was > 100 µM (inactive), the GI50 (IGROV-1) was > 100 µM (inactive) and the GI50 (786-0) was 37.9 µM (inactive). For the same molecule, the GI50 (KM-20L2) was 34.2 µM (inactive), the GI50 (SF-268) was 90.6 µM (inactive) and the GI50 (ACHN) was > 100 µM (inactive). The GI50 (HL-60) was 14.6 µM (inactive), the GI50 (EKVX) was > 100 µM (inactive) and the GI50 (SK-MEL-28) was 50 µM (inactive). The GI50 (HCC 2998) was > 100 µM (inactive), the GI50 (HCT-15) was 80.5 µM and the GI50 (UACC-62) was > 100 µM (inactive). The GI50 (A498) was > 100 µM (inactive), the GI50 (SF-295) was 86.7 µM (inactive) and the GI50 (SNB-19) was 50.1 µM (inactive). For the same molecule, the GI50 (RPMI-8226) was 38.2 µM (inactive), the GI50 (MOLT-4) was 23 µM (inactive) and the GI50 (TK-10) was > 100 µM (inactive). For the same molecule, the GI50 (KM12) was 38.3 µM (inactive), the GI50 (NCI-H226) was > 100 µM (inactive) and the GI50 (HOP-18) was > 100 µM (inactive). For the same molecule, the GI50 (DMS-273) was 54.1 µM (inactive), the GI50 (M14) was 19.1 µM (inactive) and the GI50 (OVCAR-4) was 30 µM (inactive). The GI50 (SK-MEL-5) was > 100 µM (inactive), the GI50 (SK-OV-3) was > 100 µM (inactive) and the GI50 (SK-MEL-2) was > 100 µM (inactive).
`C[C@@H](CC(O)C1OC1(C)C)[C@@H]1CC[C@]2(C)C3=CCC4C(C)(C)C(O)CC[C@]4(C)C3CCC12C` (stereo partly drawn) was tested, and the GI50 (M19-MEL) was 18.1 µM (inactive), the GI50 (SR) was 16.3 µM (inactive) and the GI50 (OVCAR-5) was 38 µM (inactive). For the same molecule, the GI50 (U-251) was 30.5 µM (inactive), the GI50 (UACC-257) was 16.3 µM (inactive) and the GI50 (HOP-62) was 42.8 µM (inactive). The GI50 (CCRF-CEM) was 27.5 µM (inactive), the GI50 (HOP-92) was 17.9 µM (inactive) and the GI50 (SF-539) was 17.9 µM (inactive). For the same molecule, the GI50 (LXFL 529) was 12.3 µM (inactive), the GI50 (XF498) was 20.8 µM (inactive) and the GI50 (SW-620) was 38.9 µM (inactive). For the same molecule, the GI50 (COLO 205) was 21.3 µM (inactive), the GI50 (LOX IMVI) was 24.8 µM (inactive) and the GI50 (K562) was 6.84 µM (inactive). For the same molecule, the GI50 (HT-29) was 11.4 µM (inactive), the GI50 (NCI-H23) was 19.1 µM (inactive) and the GI50 (A549) was 12.7 µM (inactive). The GI50 (UO-31) was 18.6 µM (inactive), the GI50 (OVCAR-3) was 34.7 µM (inactive) and the GI50 (NCI-H460) was 17.3 µM (inactive). For the same molecule, the GI50 (DLD-1) was 16.6 µM (inactive), the GI50 (NCI-H522) was 11.8 µM (inactive) and the GI50 (Malme-3M) was 13 µM (inactive). For the same molecule, the GI50 (RXF 393) was 16.7 µM (inactive), the GI50 (IGROV-1) was 31.3 µM (inactive) and the GI50 (SN12C) was 42.2 µM (inactive). The GI50 (786-0) was 16 µM (inactive), the GI50 (KM-20L2) was 15.4 µM (inactive) and the GI50 (SF-268) was 26.3 µM (inactive). For the same molecule, the GI50 (ACHN) was 14.8 µM (inactive), the GI50 (HL-60) was 4.14 µM (inactive) and the GI50 (EKVX) was 39.6 µM (inactive). For the same molecule, the GI50 (SK-MEL-28) was 18.2 µM (inactive), the GI50 (HCC 2998) was 48.6 µM (inactive) and the GI50 (HCT-15) was 33.1 µM. The GI50 (UACC-62) was 14.8 µM (inactive), the GI50 (A498) was 26.5 µM (inactive) and the GI50 (SF-295) was 13.7 µM (inactive). For the same molecule, the GI50 (SNB-19) was 37.6 µM (inactive), the GI50 (RPMI-8226) was 10.3 µM (inactive) and the GI50 (MOLT-4) was 16 µM (inactive). The GI50 (TK-10) was 20.3 µM (inactive), the GI50 (KM12) was 22.9 µM (inactive) and the GI50 (NCI-H226) was 18.5 µM (inactive). For the same molecule, the GI50 (HOP-18) was 20 µM (inactive), the GI50 (DMS-273) was 13.3 µM (inactive) and the GI50 (HCT-116) was 9.89 µM (inactive). For the same molecule, the GI50 (M14) was 13.9 µM (inactive), the GI50 (OVCAR-8) was 26.5 µM (inactive) and the GI50 (OVCAR-4) was 20.8 µM (inactive). For the same molecule, the GI50 (SK-OV-3) was 19.8 µM (inactive) and the GI50 (SK-MEL-2) was 18.6 µM (inactive).

— ChEMBL document CHEMBL1201862, “PubChem BioAssay data set” (2004)
